Data published in ChEMBL document CHEMBL5154942, “Discovery of Clinical Candidate NTQ1062 as a Potent and Bioavailable Akt Inhibitor for the Treatment of Human Tumors” (J Med Chem, 2022).
Active and inactive are the calls of the source. The calls are words filed in the database; no cut-off is given here.

How the values were obtained:
Cytochrome P450 3A4 = Cytochrome P450 3A4 (Homo sapiens, UniProt P08684); assay: Inhibition of CYP3A4 in human liver microsomes at 0.01 to 30 uM […] in presence of NADPH by UPLC-MS/MS analysis; format: ADME, Microsome
Sequence of Cytochrome P450 3A4 (P08684 whole entry): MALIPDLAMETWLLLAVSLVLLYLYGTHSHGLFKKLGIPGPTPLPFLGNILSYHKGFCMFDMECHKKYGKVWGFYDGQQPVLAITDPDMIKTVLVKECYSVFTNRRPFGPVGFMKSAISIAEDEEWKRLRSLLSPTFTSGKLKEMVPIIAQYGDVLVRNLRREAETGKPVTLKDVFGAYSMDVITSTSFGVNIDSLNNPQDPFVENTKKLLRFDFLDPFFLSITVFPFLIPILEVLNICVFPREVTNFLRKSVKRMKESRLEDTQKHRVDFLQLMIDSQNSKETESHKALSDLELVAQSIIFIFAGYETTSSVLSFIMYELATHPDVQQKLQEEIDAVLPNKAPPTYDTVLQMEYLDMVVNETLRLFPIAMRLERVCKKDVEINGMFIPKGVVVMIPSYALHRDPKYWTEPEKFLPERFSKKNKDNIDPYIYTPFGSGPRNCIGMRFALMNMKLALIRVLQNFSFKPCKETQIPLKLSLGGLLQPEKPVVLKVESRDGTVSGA

[1] = AUC (0 to infinity) in overnight fasted ICR mouse at 10 mg/kg, po measured upto 24 hrs by UPLC-MS/MS analysis; format: ADME, organism-based; parameters: dose 10 mg/kg, time < 24 hrs, route po; conditions: in vivo
LNCaP [2] = assay: Induction of apoptosis in human LNCaP cells assessed as apoptotic cells incubated for 72 hrs by annexin V/PI double staining based flow cytometry method; format: functional, cell-based; conditions: dose 0.62-2.5 µM, DDE = dose-dependent effect
[3] = target: Ribosomal protein S6 kinase alpha-4 (Homo sapiens) (UniProt O75676); assay: Inhibition of MSK2 (unknown origin) at 1 uM in presence of ATP at Km concentration by mobility shift assay relative to control
Sequence of Ribosomal protein S6 kinase alpha-4 (Homo sapiens) (O75676 whole entry, looked up): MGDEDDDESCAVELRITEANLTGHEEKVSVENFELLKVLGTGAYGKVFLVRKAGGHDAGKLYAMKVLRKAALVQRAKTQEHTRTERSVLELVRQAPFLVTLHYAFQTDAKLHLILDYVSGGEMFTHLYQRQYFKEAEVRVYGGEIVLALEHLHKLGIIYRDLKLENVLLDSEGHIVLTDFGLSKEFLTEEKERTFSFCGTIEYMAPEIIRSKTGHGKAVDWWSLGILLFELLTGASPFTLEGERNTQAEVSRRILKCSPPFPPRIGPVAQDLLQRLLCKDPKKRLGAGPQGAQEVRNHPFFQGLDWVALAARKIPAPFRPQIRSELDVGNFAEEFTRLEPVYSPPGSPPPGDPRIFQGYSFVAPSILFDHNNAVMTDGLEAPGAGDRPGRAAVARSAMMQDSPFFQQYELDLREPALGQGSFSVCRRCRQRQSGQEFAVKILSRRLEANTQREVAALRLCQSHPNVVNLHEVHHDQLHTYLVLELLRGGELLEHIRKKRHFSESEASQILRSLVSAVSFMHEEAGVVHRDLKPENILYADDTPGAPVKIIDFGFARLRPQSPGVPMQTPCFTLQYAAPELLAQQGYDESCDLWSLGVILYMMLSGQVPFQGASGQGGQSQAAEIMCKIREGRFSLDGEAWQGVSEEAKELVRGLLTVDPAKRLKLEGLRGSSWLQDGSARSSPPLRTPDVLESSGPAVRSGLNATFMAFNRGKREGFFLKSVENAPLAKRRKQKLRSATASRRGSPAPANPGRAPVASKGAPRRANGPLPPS

[4] = target: Protein kinase C eta type (Homo sapiens) (UniProt P24723); assay: Inhibition of PKCeta (unknown origin) at 1 uM in presence of ATP at Km concentration by mobility shift assay relative to control
Sequence of Protein kinase C eta type (Homo sapiens) (P24723 whole entry): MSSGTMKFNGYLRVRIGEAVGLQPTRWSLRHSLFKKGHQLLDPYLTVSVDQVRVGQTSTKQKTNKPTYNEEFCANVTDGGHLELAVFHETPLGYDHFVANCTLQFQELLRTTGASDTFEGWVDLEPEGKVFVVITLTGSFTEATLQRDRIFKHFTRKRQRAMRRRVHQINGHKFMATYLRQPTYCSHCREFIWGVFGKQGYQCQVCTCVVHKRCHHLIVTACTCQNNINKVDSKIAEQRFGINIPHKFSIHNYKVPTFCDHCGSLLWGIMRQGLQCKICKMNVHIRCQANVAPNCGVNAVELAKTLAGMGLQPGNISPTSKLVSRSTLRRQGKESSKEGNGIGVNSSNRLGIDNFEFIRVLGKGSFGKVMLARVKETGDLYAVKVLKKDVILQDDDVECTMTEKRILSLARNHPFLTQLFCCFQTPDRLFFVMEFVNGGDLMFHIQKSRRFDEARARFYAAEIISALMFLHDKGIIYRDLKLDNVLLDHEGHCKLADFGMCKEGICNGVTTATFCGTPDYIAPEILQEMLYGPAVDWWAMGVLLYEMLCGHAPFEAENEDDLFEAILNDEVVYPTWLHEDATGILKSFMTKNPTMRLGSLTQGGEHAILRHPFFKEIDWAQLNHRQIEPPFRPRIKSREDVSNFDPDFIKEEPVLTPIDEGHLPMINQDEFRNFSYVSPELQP

[5] = target: Protein kinase C theta type (Homo sapiens) (UniProt Q04759); assay: Inhibition of PKCtheta (unknown origin) at 1 uM in presence of ATP at Km concentration by mobility shift assay relative to control
Sequence of Protein kinase C theta type (Homo sapiens) (Q04759 whole entry, looked up): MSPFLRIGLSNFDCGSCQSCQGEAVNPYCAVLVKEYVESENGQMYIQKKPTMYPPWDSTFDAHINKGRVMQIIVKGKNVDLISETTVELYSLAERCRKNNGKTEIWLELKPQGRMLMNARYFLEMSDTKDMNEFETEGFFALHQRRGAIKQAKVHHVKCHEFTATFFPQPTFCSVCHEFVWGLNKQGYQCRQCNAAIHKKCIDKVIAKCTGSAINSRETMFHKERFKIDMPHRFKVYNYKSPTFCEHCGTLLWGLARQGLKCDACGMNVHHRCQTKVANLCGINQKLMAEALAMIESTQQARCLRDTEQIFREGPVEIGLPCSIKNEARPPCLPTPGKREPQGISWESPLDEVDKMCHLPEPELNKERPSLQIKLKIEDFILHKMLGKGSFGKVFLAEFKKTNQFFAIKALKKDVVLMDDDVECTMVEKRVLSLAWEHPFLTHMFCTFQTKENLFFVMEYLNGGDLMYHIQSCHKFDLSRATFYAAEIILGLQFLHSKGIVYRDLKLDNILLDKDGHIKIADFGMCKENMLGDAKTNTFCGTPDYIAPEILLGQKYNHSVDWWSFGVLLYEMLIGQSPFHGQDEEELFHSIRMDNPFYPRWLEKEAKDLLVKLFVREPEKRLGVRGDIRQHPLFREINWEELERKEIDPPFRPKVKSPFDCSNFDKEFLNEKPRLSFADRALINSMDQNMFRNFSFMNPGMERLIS

LNCaP [6] = assay: Induction of apoptosis in human LNCaP cells assessed as viable cells at […] incubated for 72 hrs by annexin V/PI double staining based flow cytometry method (reference value: 93.63 %); format: functional; conditions: read-out: Activity
LNCaP [7] = assay: Induction of apoptosis in human LNCaP cells assessed as early apoptotic cells at […] incubated for 72 hrs by annexin V/PI double staining based flow cytometry method (reference value: […]); format: functional
LNCaP [8] = assay: Induction of apoptosis in human LNCaP cells assessed as late apoptotic cells at […] incubated for 72 hrs by annexin V/PI double staining based flow cytometry method (reference value: 2.75 %); format: functional
LNCaP [9] = assay: Induction of cell cycle arrest in human LNCap cells assessed as accumulation at G0/G1 phase at 0.2 uM incubated for 24 hrs by flow cytometry (reference value: 58.60 %); format: functional
LNCaP [10] = assay: Induction of apoptosis in human LNCap cells assessed as necrotic cells incubated for 72 hrs by annexin V/PI double staining based flow cytometry method; format: functional, cell-based; conditions: dose 0.62-2.5 µM, DDE = dose-dependent effect
[11] = Metabolic stability in Sprague-Dawley rat liver microsomes assessed as parent compound remaining at 1 uM measured after 60 mins by UPLC-MS/MS analysis; format: ADME, Microsome; conditions: read-out: Stability
[12] = Metabolic stability in Beagle dog liver microsomes assessed as parent compound remaining at 1 uM measured after 60 mins by UPLC-MS/MS analysis; format: ADME, Canis lupus familiaris, Microsome; conditions: read-out: Stability
[13] = Metabolic stability in Beagle dog liver microsomes assessed as intrinsic clearance at 1 uM measured after 60 mins by LC-MS/MS analysis; format: ADME, Canis lupus familiaris, Microsome; conditions: 1 h
[14] = Metabolic stability in Crab eating monkey liver microsomes assessed as intrinsic clearance at 1 uM measured after 60 mins by LC-MS/MS analysis; format: ADME, Macaca fascicularis, Microsome; conditions: cynomolgus monkey, 1 h
[15] = Metabolic stability in Crab eating monkey liver microsomes assessed hepatic clearance at 1 uM measured after 60 mins by LC-MS/MS analysis; format: ADME, Macaca fascicularis, Microsome; conditions: cynomolgus monkey, 1 h
[16] = AUC (0 to t) in Sprague-Dawley rat at 10 mg/kg, ig by UPLC-MS/MS analysis; format: ADME, organism-based; parameters: dose 10 mg/kg, route ig; conditions: in vivo, po
[17] = Apparent volume of distribution at steady state in Sprague-Dawley rat at 5 mg/kg, iv measured upto 24 hrs by UPLC-MS/MS analysis; format: ADME, organism-based; conditions: in vivo, read-out: Vdss(app)
[18] = Bioavailability in Sprague-Dawley rat at 10 mg/kg, ig by UPLC-MS/MS analysis; format: ADME, organism-based; conditions: in vivo, po
[19] = Tmax in crab-eating monkey at 6 mg/kg, ig by UPLC-MS/MS analysis; format: ADME, organism-based, Macaca fascicularis; conditions: cynomolgus monkey, in vivo, po
[20] = Half life in crab-eating monkey at 3 mg/kg, iv measured upto 24 hrs by UPLC-MS/MS analysis; format: ADME, organism-based, Macaca fascicularis; conditions: cynomolgus monkey, in vivo
[21] = AUC (0 to t) in crab-eating monkey at 3 mg/kg, iv measured upto 24 hrs by UPLC-MS/MS analysis; format: ADME, organism-based, Macaca fascicularis; parameters: dose 3 mg/kg, time < 24 hrs, route iv; conditions: cynomolgus monkey, in vivo
[22] = AUC (0 to t) in crab-eating monkey at 6 mg/kg, ig by UPLC-MS/MS analysis; format: ADME, organism-based, Macaca fascicularis; parameters: dose 6 mg/kg, route ig; conditions: cynomolgus monkey, in vivo, po
[23] = AUC (0 to infinity) in crab-eating monkey at 3 mg/kg, iv measured upto 24 hrs by UPLC-MS/MS analysis; format: ADME, organism-based, Macaca fascicularis; parameters: dose 3 mg/kg, time < 24 hrs, route iv; conditions: cynomolgus monkey, in vivo
[24] = Apparent volume of distribution at steady state in crab-eating monkey at 3 mg/kg, iv measured upto 24 hrs by UPLC-MS/MS analysis; format: ADME, organism-based, Macaca fascicularis; conditions: cynomolgus monkey, in vivo, read-out: Vdss(app)
LNCaP [25] = assay: Antitumor activity against human LNCaP cells xenografted in NCG mouse assessed as tumor growth inhibition at 12.5 mg/kg administered once daily for 18 to 21 days relative to control; format: functional; conditions: time 18-21 day, read-out: TGI
LNCaP [26] = assay: Antitumor activity against human LNCaP cells xenografted in NCG mouse assessed as tumor growth inhibition at 25 mg/kg administered once daily for 18 to 21 days relative to control; format: functional; conditions: time 18-21 day, read-out: TGI
[27] = Tmax in NCG mouse xenografted with human LNCaP cells at 12.5 mg/kg administered once daily for 18 to 21 days and measured upto 10 hrs post last dose by LC-MS/MS analysis; format: ADME, organism-based; conditions: in vivo, time 18-21 day
[28] = Tmax in NCG mouse xenografted with human LNCaP cells at 25 mg/kg administered once daily for 18 to 21 days and measured upto 10 hrs post last dose by LC-MS/MS analysis; format: ADME, organism-based; conditions: in vivo, time 18-21 day
[29] = Cmax in NCG mouse xenografted with human LNCaP cells at 25 mg/kg administered once daily for 18 to 21 days and measured upto 10 hrs post last dose by LC-MS/MS analysis; format: ADME, organism-based; parameters: time upper 21 day, time lower 18 day, dose 25 mg/kg; conditions: in vivo
[30] = AUC (0 to t) in NCG mouse xenografted with human LNCaP cells at 12.5 mg/kg administered daily once for 18 to 21 days and measured upto 10 hrs post last dose by LC-MS/MS analysis; format: ADME, organism-based; conditions: in vivo
LNCaP [31] = assay: In vivo inhibition of AKT in human LNCaP cells xenografted in NCG mouse assessed as reduction in PRAS40 phosphorylation at 50 mg/kg administered for 21 days and measured after 4 hrs post last dose by Western blot analysis; format: functional, organism-based; conditions: time 21.0 day
[32] = Metabolic stability in human liver microsomes assessed as parent compound remaining at 1 uM measured after 60 mins by UPLC-MS/MS analysis; format: ADME, Microsome; conditions: read-out: Stability
[33] = Metabolic stability in human liver microsomes assessed hepatic clearance at 1 uM measured after 60 mins by LC-MS/MS analysis; format: ADME, Microsome; conditions: 1 h

Structure (SMILES): CC(C)NC[C@@H](C(=O)N1CCN(c2ncnc3c2[C@H](C)CC(=O)N3)[C@H]2C[C@H]21)c1ccc(Cl)cc1
- IC50 (Cytochrome P450 3A4): 15.2 µM
- AUC(0-inf) [1]: 2170 ng·h/mL
- Activity (LNCaP [2]): Dde
- inhibition [3]: 90%
- inhibition [4]: 90%
- inhibition [5]: 90%
- viability at […] (LNCaP [6]; dose 0.62 µM): 79.7%
- viability at […] (LNCaP [6]; dose 2.5 µM): 55%
- Activity (LNCaP [7]; dose 0.62 µM): 6.55%
- Activity (LNCaP [7]; dose 2.5 µM): 22.54%
- Activity (LNCaP [8]; dose 0.62 µM): 9.01%
- Activity (LNCaP [8]; dose 2.5 µM): 16.43%
- Activity (LNCaP [9]): 82.42%
- Activity (LNCaP [10]): Dde
- remaining at 1 h, 1 µM [11]: 88.8%
- remaining at 1 h, 1 µM [12]: 53.6%
- CLH [13]: 1.26 mL/h/kg
- CLH [14]: 2.94 mL/h/kg
- CLH [15]: 1.51 mL/h/kg
- AUC(0-t) [16]: 3880 ng·h/mL
- Vd [17]: 7.76 L/kg
- bioavailability [18]: 110%
- Tmax [19]: 4 h
- half-life [20]: 7.73 h
- AUC(0-t) at 24 h [21]: 1780 ng·h/mL
- AUC(0-t) [22]: 1480 ng·h/mL
- AUC(0-inf) [23]: 1880 ng·h/mL
- Vd [24]: 8.36 L/kg
- inhibition in vivo at 12.5 mg/kg (LNCaP [25]): 84.1%
- inhibition in vivo at 25 mg/kg (LNCaP [26]): 95.5%
- Tmax [27]: 2 h
- Tmax [28]: 4 h
- Cmax [29]: 1980 ng/mL
- AUC(0-t) [30]: 7030 ng·h/mL
- Activity (LNCaP [31]): Active
- remaining at 1 h, 1 µM [32]: 62.9%
- CLH [33]: 538 mL/h/kg
